#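 Interpolation was linear, between the two tested concentrations surrounding the appropriate level; five concentrations were tested over 48 hours in 96-well plates. Definition used: TGI = concentration required for complete inhibition of growth.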
# Tests used:
# Assay in all cases: growth of human tumour cells (NCI), 48 h
# NCI-H460 lung = tested on: NCI-H460 lung
# K-562 leukemia = tested on: K-562 leukemia
# LXFL 529 NSCLC = tested on: LXFL 529 NSCLC
# SK-OV-3 ovarian = tested on: SK-OV-3 ovarian
# KM12 colon = tested on: KM12 colon
# HOP-92 NSCLC = tested on: HOP-92 NSCLC
# U251 CNS = tested on: U251 CNS
# M19-MEL melanoma = tested on: M19-MEL melanoma
# SW-620 colon = tested on: SW-620 colon
# DMS 114 small cell lung = tested on: DMS 114 small cell lung
# OVCAR-3 ovarian = tested on: OVCAR-3 ovarian
# UACC-62 melanoma = tested on: UACC-62 melanoma
# NCI-H23 lung = tested on: NCI-H23 lung
# COLO 205 colon = tested on: COLO 205 colon
# SNB-19 CNS = tested on: SNB-19 CNS
# XF 498 CNS = tested on: XF 498 CNS
# OVCAR-4 ovarian = tested on: OVCAR-4 ovarian
# LOX IMVI melanoma = tested on: LOX IMVI melanoma
# HT29 colon = tested on: HT29 colon
# RXF 393 renal = tested on: RXF 393 renal
# DLD-1 colon = tested on: DLD-1 colon
# A549 NSCLC = tested on: A549 NSCLC
# A498 renal = tested on: A498 renal
# M14 melanoma = tested on: M14 melanoma
# HOP-18 NSCLC = tested on: HOP-18 NSCLC
# HCT-15 colon = tested on: HCT-15 colon
# UACC-257 melanoma = tested on: UACC-257 melanoma
# IGROV1 ovarian = tested on: IGROV1 ovarian
# KM20L2 colon = tested on: KM20L2 colon
# SF-295 CNS = tested on: SF-295 CNS
# TK-10 renal = tested on: TK-10 renal
# NCI-H522 lung = tested on: NCI-H522 lung
# SK-MEL-5 melanoma = tested on: SK-MEL-5 melanoma
# HL-60(TB) leukemia = tested on: HL-60(TB) leukemia
# SF-268 CNS = tested on: SF-268 CNS
# 786-0 renal = tested on: 786-0 renal
# MALME-3M melanoma = tested on: MALME-3M melanoma
# DMS 273 small cell lung = tested on: DMS 273 small cell lung
# SK-MEL-2 melanoma = tested on: SK-MEL-2 melanoma
# SF-539 CNS = tested on: SF-539 CNS
# MOLT-4 leukemia = tested on: MOLT-4 leukemia
# CCRF-CEM leukemia = tested on: CCRF-CEM leukemia
# NCI-H226 lung = tested on: NCI-H226 lung
# SN12C renal = tested on: SN12C renal
# SNB-75 CNS = tested on: SNB-75 CNS
# UO-31 renal = tested on: UO-31 renal
# SNB-78 CNS = tested on: SNB-78 CNS
# RPMI-8226 leukemia = tested on: RPMI-8226 leukemia
# HCT-116 colon = tested on: HCT-116 colon
# CAKI-1 renal = tested on: CAKI-1 renal
# EKVX NSCLC = tested on: EKVX NSCLC
# HOP-62 NSCLC = tested on: HOP-62 NSCLC
# OVCAR-5 ovarian = tested on: OVCAR-5 ovarian
# OVCAR-8 ovarian = tested on: OVCAR-8 ovarian
# ACHN renal = tested on: ACHN renal
# SK-MEL-28 melanoma = tested on: SK-MEL-28 melanoma
# HCC-2998 colon = tested on: HCC-2998 colon
smiles,measurement,setting,value
N#Cc1cccc(N2C(=O)c3ccc(C(=O)c4ccc5c(c4)C(=O)N(c4cccc(C#N)c4)C5=O)cc3C2=O)c1,TGI,NCI-H460 lung,> 100 µM
same,TGI,K-562 leukemia,> 100 µM
same,TGI,LXFL 529 NSCLC,> 100 µM
same,TGI,SK-OV-3 ovarian,> 100 µM
same,TGI,KM12 colon,> 100 µM
same,TGI,HOP-92 NSCLC,> 100 µM
same,TGI,U251 CNS,> 100 µM
same,TGI,M19-MEL melanoma,> 100 µM
same,TGI,SW-620 colon,> 100 µM
same,TGI,DMS 114 small cell lung,> 100 µM
same,TGI,OVCAR-3 ovarian,> 100 µM
same,TGI,UACC-62 melanoma,> 100 µM
same,TGI,NCI-H23 lung,> 100 µM
same,TGI,COLO 205 colon,> 100 µM
same,TGI,SNB-19 CNS,> 100 µM
same,TGI,XF 498 CNS,> 100 µM
same,TGI,OVCAR-4 ovarian,> 100 µM
same,TGI,LOX IMVI melanoma,> 100 µM
same,TGI,HT29 colon,> 100 µM
same,TGI,RXF 393 renal,> 100 µM
same,TGI,DLD-1 colon,> 100 µM
same,TGI,A549 NSCLC,> 100 µM
same,TGI,A498 renal,> 100 µM
same,TGI,M14 melanoma,> 100 µM
same,TGI,HOP-18 NSCLC,> 100 µM
same,TGI,HCT-15 colon,> 100 µM
same,TGI,UACC-257 melanoma,> 100 µM
same,TGI,IGROV1 ovarian,> 100 µM
same,TGI,KM20L2 colon,> 100 µM
same,TGI,SF-295 CNS,> 100 µM
same,TGI,TK-10 renal,> 100 µM
same,TGI,NCI-H522 lung,> 100 µM
same,TGI,SK-MEL-5 melanoma,> 100 µM
same,TGI,HL-60(TB) leukemia,> 100 µM
same,TGI,SF-268 CNS,> 100 µM
same,TGI,786-0 renal,> 100 µM
same,TGI,MALME-3M melanoma,> 100 µM
same,TGI,DMS 273 small cell lung,> 100 µM
same,TGI,SK-MEL-2 melanoma,> 100 µM
same,TGI,SF-539 CNS,> 100 µM
same,TGI,MOLT-4 leukemia,> 100 µM
same,TGI,CCRF-CEM leukemia,> 100 µM
same,TGI,NCI-H226 lung,> 100 µM
same,TGI,SN12C renal,> 100 µM
same,TGI,SNB-75 CNS,> 100 µM
same,TGI,UO-31 renal,> 100 µM
same,TGI,SNB-78 CNS,> 100 µM
same,TGI,RPMI-8226 leukemia,> 100 µM
same,TGI,HCT-116 colon,> 100 µM
same,TGI,CAKI-1 renal,> 100 µM
same,TGI,EKVX NSCLC,> 100 µM
same,TGI,HOP-62 NSCLC,> 100 µM
same,TGI,OVCAR-5 ovarian,> 100 µM
same,TGI,OVCAR-8 ovarian,> 100 µM
COc1ccc(/C(Cl)=C(\C=O)c2ccc(Cl)c(Cl)c2)cc1,TGI,NCI-H460 lung,19 µM
same,TGI,K-562 leukemia,> 100 µM
same,TGI,LXFL 529 NSCLC,20.4 µM
same,TGI,SK-OV-3 ovarian,55 µM
same,TGI,HOP-92 NSCLC,24.3 µM
same,TGI,U251 CNS,18.4 µM
same,TGI,M19-MEL melanoma,28.2 µM
same,TGI,SW-620 colon,19.3 µM
same,TGI,DMS 114 small cell lung,18 µM
same,TGI,OVCAR-3 ovarian,31.9 µM
same,TGI,UACC-62 melanoma,26.7 µM
same,TGI,COLO 205 colon,36.6 µM
same,TGI,SNB-19 CNS,30.1 µM
same,TGI,XF 498 CNS,24.3 µM
same,TGI,LOX IMVI melanoma,13.9 µM
same,TGI,ACHN renal,20 µM
same,TGI,HT29 colon,15.5 µM
same,TGI,DLD-1 colon,25.5 µM
same,TGI,A498 renal,35.6 µM
same,TGI,M14 melanoma,38 µM
same,TGI,SK-MEL-28 melanoma,31 µM
same,TGI,HOP-18 NSCLC,28.3 µM
same,TGI,HCT-15 colon,20.4 µM
same,TGI,IGROV1 ovarian,33.7 µM
same,TGI,KM20L2 colon,24 µM
same,TGI,SF-295 CNS,22 µM
same,TGI,TK-10 renal,32.5 µM
same,TGI,NCI-H522 lung,7.76 µM
same,TGI,SK-MEL-5 melanoma,25.8 µM
same,TGI,HL-60(TB) leukemia,23.9 µM
same,TGI,SF-268 CNS,24.9 µM
same,TGI,MALME-3M melanoma,34.1 µM
same,TGI,DMS 273 small cell lung,32.8 µM
same,TGI,SK-MEL-2 melanoma,15.5 µM
same,TGI,SF-539 CNS,22.2 µM
same,TGI,MOLT-4 leukemia,7.36 µM
same,TGI,CCRF-CEM leukemia,30.2 µM
same,TGI,NCI-H226 lung,36.4 µM
same,TGI,SN12C renal,29.2 µM
same,TGI,SNB-75 CNS,7.87 µM
same,TGI,UO-31 renal,26.8 µM
same,TGI,SNB-78 CNS,49 µM
same,TGI,RPMI-8226 leukemia,8.05 µM
same,TGI,HCT-116 colon,14.1 µM
same,TGI,CAKI-1 renal,23 µM
same,TGI,EKVX NSCLC,37.9 µM
same,TGI,HOP-62 NSCLC,27.2 µM
same,TGI,OVCAR-8 ovarian,32.3 µM
CCCOP1(=O)C=CC(Cl)=C(C)C1 (stereo not given),TGI,NCI-H460 lung,> 100 µM
same,TGI,K-562 leukemia,> 31.6 µM
same,TGI,LXFL 529 NSCLC,> 61.1 µM
same,TGI,SK-OV-3 ovarian,> 100 µM
same,TGI,KM12 colon,50.4 µM
same,TGI,HOP-92 NSCLC,> 100 µM
same,TGI,U251 CNS,> 100 µM
same,TGI,SW-620 colon,42.2 µM
same,TGI,DMS 114 small cell lung,89.3 µM
same,TGI,OVCAR-3 ovarian,> 75.2 µM
same,TGI,UACC-62 melanoma,52.2 µM
same,TGI,NCI-H23 lung,> 100 µM
same,TGI,COLO 205 colon,33.9 µM
same,TGI,SNB-19 CNS,> 100 µM
same,TGI,XF 498 CNS,> 93.1 µM
same,TGI,OVCAR-4 ovarian,> 100 µM
same,TGI,LOX IMVI melanoma,> 100 µM
same,TGI,ACHN renal,> 66.5 µM
same,TGI,HT29 colon,> 100 µM
same,TGI,RXF 393 renal,33.4 µM
same,TGI,DLD-1 colon,47.9 µM
same,TGI,A549 NSCLC,> 100 µM
same,TGI,A498 renal,> 100 µM
same,TGI,M14 melanoma,> 61.3 µM
same,TGI,SK-MEL-28 melanoma,42.8 µM
same,TGI,HOP-18 NSCLC,> 100 µM
same,TGI,HCT-15 colon,39.7 µM
same,TGI,UACC-257 melanoma,64.3 µM
same,TGI,IGROV1 ovarian,> 100 µM
same,TGI,KM20L2 colon,> 100 µM
same,TGI,SF-295 CNS,> 100 µM
same,TGI,TK-10 renal,> 100 µM
same,TGI,NCI-H522 lung,31.6 µM
same,TGI,SK-MEL-5 melanoma,> 100 µM
same,TGI,SF-268 CNS,> 100 µM
same,TGI,786-0 renal,76 µM
same,TGI,MALME-3M melanoma,52.1 µM
same,TGI,SK-MEL-2 melanoma,> 89.5 µM
same,TGI,SF-539 CNS,> 68.2 µM
same,TGI,MOLT-4 leukemia,22.2 µM
same,TGI,CCRF-CEM leukemia,19.7 µM
same,TGI,SN12C renal,> 100 µM
same,TGI,SNB-75 CNS,> 100 µM
same,TGI,UO-31 renal,> 100 µM
same,TGI,SNB-78 CNS,> 100 µM
same,TGI,RPMI-8226 leukemia,60.1 µM
same,TGI,HCT-116 colon,33.5 µM
same,TGI,HCC-2998 colon,> 100 µM
same,TGI,CAKI-1 renal,> 95.9 µM
same,TGI,EKVX NSCLC,> 88 µM
same,TGI,HOP-62 NSCLC,> 100 µM
same,TGI,OVCAR-5 ovarian,> 100 µM
same,TGI,OVCAR-8 ovarian,47.5 µM

# Reference: PubChem BioAssay (NCI)
